Measurements reported in patent US4175081A, “5-Substituted thiadiazole ureas” (priority 1977, dated 1979).

Legend:
Turnip (TP) [1] = assay: Post-emergence herbicide test; assay type: in vivo, Brassica sp.; settings: Brassica rapa, post-emergence, 336 h; 8 lb/acre; two weeks after treatment
Outline: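 A greenhouse post-emergence herbicide test on turnip. Seeds were sown on the surface of potting soil in 3' plastic pots, lightly covered with screened soil and watered from below. Planting was timed so seedlings had 1 or 2 true leaves above the cotyledons at spraying, done in a hood with a fixed nozzle. Control or injury was scored by eye after two weeks.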

Amaranth pigweed (PW) [2] = assay: Pre-emergence herbicide test; assay type: in vivo, Amaranthus retroflexus; settings: 336 h, 8 lb/acre, two weeks after treatment
Outline: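 Visual injury or control ratings were made at two weeks on pre-emergence pots, sub-irrigated in the greenhouse. Seeds were sown a day before a hood spray delivering 8 lbs/acre (or 4 lbs/acre) of compound in 38 gallons per acre.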

Corn (CN) [3] = assay: Post-emergence herbicide test; assay type: in vivo; settings: Zea mays, 336 h, 8 lb/acre, two weeks after treatment
Outline: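 Greenhouse seedlings grown in potting soil and sprayed post-emergence at 8 lbs compound/acre (formulations also made for 4 lbs/acre) in 38 gallons/acre spray volume. Watering by sub-irrigation only. Injury or control rated visually two weeks after treatment.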

Johnson grass (JG) [4] = assay: Post-emergence herbicide test; assay type: in vivo, Sorgum helepense; settings: Sorghum halepense, 336 h, 8 lb/acre, two weeks after treatment
Outline: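 Visual injury or control scores taken 2 weeks after a post-emergence spray of pot-grown plants. Application was 8 lbs/acre (or 4 lbs/acre) in 38 gal/acre. Plants were held in the greenhouse with sub-irrigation only.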

Barnyard grass (BG) = assay: Post-emergence herbicide test; assay type: in vivo; settings: Echinochloa crus-galli, 336 h, 8 lb/acre, two weeks after treatment
Outline: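 Greenhouse pot-grown barnyard grass seedlings sprayed post-emergence at 8 lbs active compound per acre (some at 4 lbs/acre) in 38 gallons per acre, then sub-irrigated. Injury or control rated visually two weeks after treatment.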

Bean (BN) [5] = assay: Post-emergence herbicide test; assay type: in vivo, Phaseolus vulgaris var. Black Valentine; settings: Phaseolus vulgaris, post-emergence, 336 h; 8 lb/acre; two weeks after treatment
Outline: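 Bean seedlings (Phaseolus vulgaris var. Black Valentine) were grown in potting soil in 3' pots until the primary leaves expanded. They were then sprayed under a hood with a removable belt and fixed nozzle, using 50 ml formulations. Afterward they were returned to the greenhouse and watered only by sub-irrigation. Percent control was judged visually two weeks after treatment.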

Turnip (TP) [6] = assay: Pre-emergence herbicide test; assay type: in vivo, Brassica sp.; settings: Brassica rapa, pre-emergence, 336 h; 8 lb/acre; two weeks after treatment
Outline: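 In this pre-emergence greenhouse test, turnip was seeded on the surface of potting soil in 3' plastic pots, lightly covered with screened soil, and watered from below. One day later the pots were sprayed in a belt-fed spray hood. Watering continued only by sub-irrigation, and percent control was visually scored two weeks after treatment.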

Johnson grass (JG) [7] = assay: Pre-emergence herbicide test; assay type: in vivo, Sorgum helepense; settings: Sorghum halepense, 336 h, 8 lb/acre, two weeks after treatment
Outline: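 Visual injury or control rating two weeks post-treatment, after pre-emergence spray of 8 or 4 lbs active per acre (38 gal/acre) onto pots sown the previous day. Greenhouse watering by sub-irrigation only.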

Crabgrass (CG) [8] = assay: Pre-emergence herbicide test; assay type: in vivo, Digitaria sanquinalis; settings: Digitaria sanguinalis, pre-emergence, 336 h; 8 lb/acre; two weeks after treatment
Outline: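 Crabgrass (Digitaria sanquinalis) was surface seeded in 3' plastic pots of potting soil, covered with screened soil, and watered by sub-irrigation in greenhouse trays. Pots were seeded one day before spraying in a hood with a moving belt and fixed nozzle. Plants stayed in the greenhouse on sub-irrigation, and pre-emergence control was rated visually two weeks after treatment.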

Crabgrass (CG) [9] = assay: Post-emergence herbicide test; assay type: in vivo, Digitaria sanquinalis; settings: Digitaria sanguinalis, post-emergence, 336 h; 8 lb/acre; two weeks after treatment
Outline: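 Crabgrass (Digitaria sanquinalis) was surface seeded individually in 3' plastic pots of potting soil, covered with screened soil, and watered by sub-irrigation in greenhouse trays. Planting was staggered so seedlings reached the target stage together. Post-emergence sprays were applied in a hood with a removable belt and fixed nozzle, and control was visually rated two weeks after treatment.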

Corn (CN) [10] = assay: Pre-emergence herbicide test; assay type: in vivo; settings: Zea mays, 336 h, 8 lb/acre, two weeks after treatment
Outline: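 Visual injury/control ratings were made 2 weeks post-spray on corn pots seeded (4 seeds, seed-diameter depth) the day before treatment. Application was a belt-hood spray of 38 gal/acre delivering 8 lbs active per acre, with a 4 lbs/acre rate also formulated. Watering was by sub-irrigation throughout.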

[11] = test system: variety of crops and weed species; assay: Pre- and post-emergence herbicide tests, overall assessment of Tables III-VI; assay type: in vivo; settings: data of Tables III-VI
Experimental: All crop and weed species were planted individually in 3' plastic pots containing potting soil. Four seeds each of corn, cotton, and snapbeans were seeded to a depth equal to the diameter of the seed. All other species were surface seeded and sprinkled with screened soil in an amount sufficient to cover the seed. Immediately after planting, all pots were watered by sub-irrigation in greenhouse trays. Pots for the pre-emergence phase were seeded one day before treatment.
Compounds were tested at rates of application equivalent to 8 lbs. of actual compound per acre in a spray volume of 38 gallons per acre. Spray hood constants required to deliver the above volume are as follows:
Two weeks after treatment, pre- and post-emergence injury or control was visually rated, and the results were as shown in the following tables. Pre-emergence data are provided in TABLE III and post-emergence data are provided in TABLE IV, for compounds having the formula illustrated in TABLE I. Correspondingly, pre-emergence and post-emergence data, respectively, are set forth in TABLES V AND VI, for compounds having the formula illustrated in TABLE II.

Cotton (CT) [12] = assay: Post-emergence herbicide test; assay type: in vivo, Gossypium hirsutum var. DPL smooth leaf; settings: Gossypium hirsutum, post-emergence, 336 h; 8 lb/acre; two weeks after treatment
Outline: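 This greenhouse post-emergence test measured how well spray treatments controlled cotton. Seedlings of Gossypium hirsutum var. DPL smooth leaf, with expanded cotyledons and a first true leaf 1' in length, were sprayed with 50 ml formulations in a belt-fed spray hood. They were then returned to the greenhouse and watered only by sub-irrigation. Injury was scored visually as % control after two weeks.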

Cotton (CT) [13] = assay: Pre-emergence herbicide test; assay type: in vivo, Gossypium hirsutum var. DPL smooth leaf; settings: Gossypium hirsutum, 336 h, 8 lb/acre, two weeks after treatment
Outline: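 Visual injury/control ratings were taken at two weeks post-spray. Pots seeded a day earlier received compound pre-emergence at 8 lbs/acre, or 4 lbs/acre, in a 38 gallon/acre spray volume, and were then held in the greenhouse, watered only from below.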

Bean (BN) [14] = assay: Pre-emergence herbicide test; assay type: in vivo, Phaseolus vulgaris var. Black Valentine; settings: Phaseolus vulgaris, 336 h, 8 lb/acre, two weeks after treatment
Outline: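 Visual injury/control ratings were taken two weeks post-spray on sub-irrigated Phaseolus vulgaris var. Black Valentine. Pots were sown a day before treatment. Pre-emergence spray delivered 8 lbs actual compound per acre (or 4 lbs/acre) at 38 gallons per acre.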

Amaranth pigweed (PW) [15] = assay: Post-emergence herbicide test; assay type: in vivo, Amaranthus retroflexus; settings: 336 h, 8 lb/acre, two weeks after treatment
Outline: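 Visual injury or control ratings were made two weeks after spraying, with greenhouse watering by sub-irrigation only. Treatment was post-emergence, when pigweed seedlings had 1 or 2 true leaves, at 8 lbs active compound per acre (4 lbs/acre formulations also made) in a 38 gallons-per-acre spray volume.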

Which pest or weed control at 8966.8 g/ha (Turnip (TP) [1]) does the source give for CCc1nnc(NC(=O)N(C)C)s1 [Example 20] here?
The pest or weed control at 8966.8 g/ha was 90%.

What about the pest or weed control at 8966.8 g/ha (Amaranth pigweed (PW) [2]) of the same molecule?
The pest or weed control at 8966.8 g/ha was 90%.

What about the pest or weed control at 8966.8 g/ha (Corn (CN) [3]) of the same molecule?
Its pest or weed control at 8966.8 g/ha is 30%.

And the pest or weed control at 8966.8 g/ha (Johnson grass (JG) [4])?
Its pest or weed control at 8966.8 g/ha is 20%.

And the pest or weed control at 8966.8 g/ha (Barnyard grass (BG))?
Its pest or weed control at 8966.8 g/ha is 20%.

And the pest or weed control at 8966.8 g/ha (Bean (BN) [5])?
Its pest or weed control at 8966.8 g/ha is 50%.

What about the pest or weed control at 8966.8 g/ha (Turnip (TP) [6]) of the same molecule?
The pest or weed control at 8966.8 g/ha was 100%.

And the pest or weed control at 8966.8 g/ha (Johnson grass (JG) [7])?
Its pest or weed control at 8966.8 g/ha is 70%.

And the pest or weed control at 8966.8 g/ha (Crabgrass (CG) [8])?
The pest or weed control at 8966.8 g/ha was 90%.

What about the pest or weed control at 8966.8 g/ha (Crabgrass (CG) [9]) of the same molecule?
Its pest or weed control at 8966.8 g/ha is 20%.

And the pest or weed control at 8966.8 g/ha (Corn (CN) [10])?
Its pest or weed control at 8966.8 g/ha is 30%.

What about the “herbicidal effectiveness / selectivity, in words” value [11] of the same molecule?
The value was “more selective when applied to a certain crop or weed species”.

And the pest or weed control at 8966.8 g/ha (Cotton (CT) [12])?
Its pest or weed control at 8966.8 g/ha is 80%.

What about the pest or weed control at 8966.8 g/ha (Cotton (CT) [13]) of the same molecule?
Its pest or weed control at 8966.8 g/ha is 30%.

What about the pest or weed control at 8966.8 g/ha (Bean (BN) [14]) of the same molecule?
The pest or weed control at 8966.8 g/ha was 10%.

What about the pest or weed control at 8966.8 g/ha (Amaranth pigweed (PW) [15]) of the same molecule?
The pest or weed control at 8966.8 g/ha was 100%.
